We go through five compounds from patent US12110295B2, “WD40 repeat domain protein 5 (WDR5) degradation/disruption compounds and methods of use” (Icahn School of Medicine at Mount Sinai, priority 2018, dated 2024).

The target of this test is WDR5 (Homo sapiens, UniProt P61964). As to the kind of experiment: Screening of putative WDR5 degraders by Western blot in MV4;11 and/or MIAPACA2 cells. The format is cell-based. Set-up: After WDR5 degrader treatment, cells were collected and lysed; endogenous in cells; host or cells: MV4;11 and/or MIAPACA2. The note with it: summary of screening, FIGS. 6-10. In short, it runs like this: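 MV4;11 (1×10^6/well) or MIAPACA2 (1×10^5/well) cells treated 18 h with compound at paired doses between 0.1 and 10 μM, DMSO as control. Total lysates immunoblotted for WDR5 with vinculin, tubulin or GAPDH loading controls; fluorescent secondary detection.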
With `C[C@@H]1CN(c2cc(F)c(C3=CCN(c4ncc(CN5CCN(C(=O)CCOCCOCCOCCNc6cccc7c6C(=O)N(C6CCC(=O)NC6=O)C7=O)CC5)cn4)CC3)cc2NC(=O)c2c[nH]c(=O)cc2C(F)(F)F)C[C@H](C)N1C` (stereo partly drawn) [XF078-158, N-(5-(1-(5-((4-(3-(2-(2-(2-((2-(2,6-dioxopiperidin-3-yl)-1,3-dioxoisoindolin-4-yl)amino)ethoxy)ethoxy)ethoxy)propanoyl)piperazin-1-yl)methyl)pyrimidin-2-yl)-1,2,3,6-tetrahydropyridin-4-yl)-4-fluoro-2-((3S,5R)-3,4,5-trimethylpiperazin-1-yl)phenyl)-6-oxo-4-(trifluoromethyl)-1,6-dihydropyridine-3-carboxamide], the “effective degradation of WDR5 in MV4;11 and/or MIAPACA2 cells” value (“effective degradation of WDR5” for short) is listed as “able to effectively degrade WDR5”.

For `CN1CCN(c2ccc(-c3cccc(CN4CCN(CCNC(=O)CCCCCCCOc5cccc6c5C(=O)N(C5CCC(=O)NC5=O)C6=O)CC4)c3)cc2NC(=O)c2c[nH]c(=O)cc2C(F)(F)F)CC1` (centres unmarked) [XF056-39, N-(3′-((4-(2-(8-((2-(2,6-dioxopiperidin-3-yl)-1,3-dioxoisoindolin-4-yl)oxy)octanamido)ethyl)piperazin-1-yl)methyl)-4-(4-methylpiperazin-1-yl)-[1,1′-biphenyl]-3-yl)-6-oxo-4-(trifluoromethyl)-1,6-dihydropyridine-3-carboxamide], the “effective degradation of WDR5” value is reported as “able to effectively degrade WDR5”.

Take `Cc1ncsc1-c1ccc(CNC(=O)[C@@H]2C[C@@H](O)CN2C(=O)[C@@H](NC(=O)CCOCCC(=O)NCCN2CCN(Cc3ccc(F)c(-c4ccc(N5C[C@@H](C)N(C)[C@@H](C)C5)c(NC(=O)c5c[nH]c(=O)cc5C(F)(F)F)c4)c3)CC2)C(C)(C)C)cc1` [XF078-2, N-(2′-fluoro-5′-((4-(2-(3-(3-(((S)-1-((2S,4R)-4-hydroxy-2-((4-(4-methylthiazol-5-yl)benzyl)carbamoyl)pyrrolidin-1-yl)-3,3-dimethyl-1-oxobutan-2-yl)amino)-3-oxopropoxy)propanamido)ethyl)piperazin-1-yl)methyl)-4-((3S,5R)-3,4,5-trimethylpiperazin-1-yl)-[1,1′-biphenyl]-3-yl)-6-oxo-4-(trifluoromethyl)-1,6-dihydropyridine-3-carboxamide]: the “effective degradation of WDR5” value is listed as “able to effectively degrade WDR5”.

Consider `C[C@@H]1CN(c2cc(F)c(-c3cnc(N4CCN(C(=O)CCOCCOCCOCCNc5cccc6c5C(=O)N(C5CCC(=O)NC5=O)C6=O)CC4)nc3)cc2NC(=O)c2ccc(F)cc2C(F)(F)F)C[C@H](C)N1C` (stereo partly drawn) [XF078-125, N-(5-(2-(4-(3-(2-(2-(2-((2-(2,6-dioxopiperidin-3-yl)-1,3-dioxoisoindolin-4-yl)amino)ethoxy)ethoxy)ethoxy)propanoyl)piperazin-1-yl)pyrimidin-5-yl)-4-fluoro-2-((3S,5R)-3,4,5-trimethylpiperazin-1-yl)phenyl)-4-fluoro-2-(trifluoromethyl)benzamide], for which the “effective degradation of WDR5” value was “able to effectively degrade WDR5”.

Turning to `C[C@@H]1CN(c2cc(F)c(C3=CCN(c4ncc(CN5CCN(C(=O)CCOCCOCCOCCOCCNc6cccc7c6C(=O)N(C6CCC(=O)NC6=O)C7=O)CC5)cn4)CC3)cc2NC(=O)c2c[nH]c(=O)cc2C(F)(F)F)C[C@H](C)N1C` (stereo partly drawn) [XF078-159, N-(5-(1-(5-((4-(1-((2-(2,6-dioxopiperidin-3-yl)-1,3-dioxoisoindolin-4-yl)amino)-3,6,9,12-tetraoxapentadecan-15-oyl)piperazin-1-yl)methyl)pyrimidin-2-yl)-1,2,3,6-tetrahydropyridin-4-yl)-4-fluoro-2-((3S,5R)-3,4,5-trimethylpiperazin-1-yl)phenyl)-6-oxo-4-(trifluoromethyl)-1,6-dihydropyridine-3-carboxamide], the “effective degradation of WDR5” value is recorded as “able to effectively degrade WDR5”.
